For data set [1], the system named is 5α-reductase. Nature of the data set: Cell-free 5α-reductase assay, isozyme not given. Type of data set: biochemical, human. The following applies: isozyme not stated.
The subject of data set [2] is 5α-reductase. Nature of the data set: Whole-cell 5α-reductase assay, isozyme not given. The data set is classed as cell-based, human. The following applies: isozyme not stated. The text has this:
Intact cells containing 5α-reductase, their microsomes, or nuclear preparations can also be used to screen 5α-reductase inhibitors.

Data set [3] has as its system hamster flank organ. The experiment in a line: DHT-stimulated growth of the pigmented macules of hamster flank organs. Type of data set: in vivo, Syrian golden hamsters. As to conditions: 0.5 μg DHT + 1 mg compound topically daily, 18 days. The method, then:
Prepubertal male Syrian golden hamsters, castrated at 4 weeks of age, were obtained from Harlan Sprague-Dawley Co. (Madison, Wis.). Bilateral orchiectomy was performed under anesthesia. The hamsters were housed individually in plastic cages and had free access to Purina rodent chow and water, and were maintained on a 12-h light/12-h dark cycle. Hamsters were used 1-2 weeks after castration and were divided into groups of 4-6 or 9-11 animals. Hair on the lower back of each animal was shaved weekly with an electric hair clipper to expose the flank organs. A treatment solution (5 μl with ethanol as vehicle) was applied topically to the flank organ once a day using a Pipetteman and a polypropylene disposable tip. The treatment solution contained either (a) ethanol alone, (b) an androgen (testosterone or DHT), (c) a test compound, or (d) a combination of an androgen and a test compound. For each hamster, one flank organ was treated while the other organ was not treated. The surface of the flank organ was wiped with an alcohol pad to remove residual compound before each treatment. At the end of each experiment (18 days), animals were killed by CO2 asphyxiation or an intraperitoneal injection of […]. Flank organs from both the treated and untreated sides were examined 1 day after the last treatment by the methods described below. The body weight of each animal was recorded before and after treatment. Experiments were repeated at least twice to assure reproducibility. The “Guide for the care and use of laboratory animals” (NIH publication no. 85-28, revised 1988) and the regulations of the U.S. Department of Agriculture were followed throughout the experiments.
In this study, the growth of the flank organ was determined by measuring the length of the long axis and the short axis of the pigmented spot (pigmented macule) with a caliper with a digital display (Digimatic; Mitutoyo Corporation, Japan). The surface area (in millimeters squared) of the spot was calculated as the product of the long axis and the short axis (Gomez and Frost 1975). The areas of the pigmented spots after treatment with ethanol alone or with test compound (in ethanol) alone were less than 10% of the areas of the pigmented spots after treatment with testosterone alone. These values were deducted from the experimental values and are compared in Tables 8-10. For each experiment, the means and standard error of the means (SEM) of the areas of the untreated and treated macules were computed separately for each treatment group. Within each experiment, an overall F-test (one way ANOVA) was used to test the null hypothesis that the mean sizes of the treated macules were the same in all groups, and Dunnett's multiple range test was used to examine differences between the treatment groups (i.e., green tea catechin+androgen, fatty acid+androgen, EGC derivative+androgen, or fatty acid derivative+androgen) and the control group (androgen treatment only). The Mann-Whitney test was used to examine differences between DHT-treated and the DHT and EGCG-treated groups. P-values <0.05 were taken as indicating statistical significance in all tests (Hochberg and Tamhane 1987).
Each group comprised four to six castrated male hamsters. At the end of the treatment period, the areas of the pigmented macules were determined and are presented as means±SEM in Table 8.
Each group comprised four to six castrated male hamsters. At the end of the treatment period, the areas of the pigmented macules were determined and are expressed as means±SEM as shown in Table 10.

In data set [4] the target is 5α-reductase. As to conditions: Liao and Hiipakka 1995, cited from earlier work; for IC50: read-out: IC50, 5α-reductase, in vitro enzyme assay; for activity against 5α-reductase, in vitro enzyme assay: at 200 μM.
Data set [5] deals with T1, type 1 human 5α-reductase (Homo sapiens, UniProt P18405).
T1 sequence (P18405 1-259): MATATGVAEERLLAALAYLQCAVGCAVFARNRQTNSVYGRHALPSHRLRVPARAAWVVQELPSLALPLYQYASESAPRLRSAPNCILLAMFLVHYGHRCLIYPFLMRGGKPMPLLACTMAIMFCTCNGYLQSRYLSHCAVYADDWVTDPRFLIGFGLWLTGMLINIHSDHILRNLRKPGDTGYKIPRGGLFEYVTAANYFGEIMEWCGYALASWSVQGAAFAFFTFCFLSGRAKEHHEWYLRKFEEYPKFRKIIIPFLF
Nature of the data set: Cell-free enzymatic assay of 5α-reductase (testosterone to DHT), type 1. As to conditions: for inhibition at 100 µM: read-out: percent inhibition of 5α-reductase activity, cell-free assay, Type 1, 100 μM compound.

The nature of data set [6]: Stability (half-life, oxidation or hydrolysis) in culture medium, buffers and solutions. Type of data set: physicochemical. The text has this: These green tea catechins had little inhibitory activity against 5α-reductase in whole cells. The lack of activity in whole cells may be due to an inability of these catechins to cross the cell membrane or to enzymatic or non-enzymatic changes in the structure of these catechins in assays using whole-cell cultures.
Active 5α-reductase inhibitors shown in Tables 1-7 are polyphenols or their derivatives and are easily oxidized or hydrolyzed within several hours to several days, especially in the presence of air or oxygen and at a pH above 7.0. […] More than 80% of the oxidation of hydrolysis can be prevented by the addition of an inorganic acid, such as hydrochloric acid, sulfuric acid, or phosphoric acid, or an organic acid, such as citric acid or acetic acid.

Data set [7] relates to hamster flank organ. The experiment in a line: Testosterone-stimulated growth of the pigmented macules of hamster flank organs.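 On all read-outs here: prepubertal Syrian golden hamsters castrated at 4 weeks, ethanol vehicle on one flank organ, macule long and short axes gauged by caliper 1 day after final dose.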 Type of data set: in vivo, Syrian golden hamsters. The following applies: 18 days; for Pigmented macule area: mean±SEM.
Data set [8] has as its target T2, type 2 human 5α-reductase (Homo sapiens, UniProt P31213).
T2 sequence (P31213 1-254): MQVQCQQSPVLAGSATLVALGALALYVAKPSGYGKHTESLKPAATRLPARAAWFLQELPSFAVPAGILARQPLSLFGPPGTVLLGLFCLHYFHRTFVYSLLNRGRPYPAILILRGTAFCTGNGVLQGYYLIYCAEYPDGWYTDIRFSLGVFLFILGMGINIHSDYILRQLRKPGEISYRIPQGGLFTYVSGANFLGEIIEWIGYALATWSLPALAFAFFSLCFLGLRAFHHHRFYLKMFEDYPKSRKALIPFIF
Nature of the data set: Whole-cell assay of 5α-reductase, type 2. On the set-up: expressed in transfected cells; host or cells: rat 1A cells infected with pMV7 retrovirus and selected with G418; intact cells for the whole-cell assay. As to conditions: for inhibition at 100 µM: read-out: percent inhibition of 5α-reductase activity, whole-cell assay, Type 2, 100 μM compound. Type of data set: cell-based.

Data set [9] has as its target T2, type 2 human 5α-reductase. Nature of the data set: Cell-free enzymatic assay of 5α-reductase (testosterone to DHT), type 2. Type of data set: biochemical. The arrangement: expressed in transfected cells; host or cells: rat 1A cells infected with pMV7 retrovirus and selected with G418; microsomes for the cell-free assay. The following applies: for inhibition at 100 µM: read-out: percent inhibition of 5α-reductase activity, cell-free assay, Type 2, 100 μM compound.

Data set [10] concerns the target T1, type 1 human 5α-reductase. The experiment in a line: Whole-cell assay of 5α-reductase, type 1. Type of data set: cell-based. The arrangement: expressed in transfected cells; host or cells: rat 1A cells infected with pMV7 retrovirus and selected with G418; microsomes for the cell-free assay, intact cells for the whole-cell assay. The following applies: for inhibition at 100 µM: read-out: percent inhibition of 5α-reductase activity, whole-cell assay, Type 1, 100 μM compound.

The mark [11] stands for this setting: cell-free assay, double-reciprocal plots.
Where [12] appears, read: 0.5 μg testosterone + 1 mg compound topically daily.
Where [13] appears, read: 0.5 μg testosterone + 1 mg compound topically daily, castrated male hamsters.
Where [14] appears, read: 0.5 μg testosterone + 2 mg compound topically daily.

The values below come from US6696484B2, “Method and compositions for regulation of 5-alpha reductase activity” (University of Chicago Office of Technology and Intellectual …, priority 1997, dated 2004).

Values joined by “and” are separate entries in the source; they are usually repeats but may differ in a detail not shown here. Equal values may be shown once. Read-outs that look alike come from different tables or passages of the source.

Turning to `CCCCC/C=C\C/C=C\C/C=C\CCCCC(=O)O[C@H]1CC[C@@]2(C)C(=CC[C@H]3[C@@H]4CC[C@H]([C@H](C)CCCC(C)C)[C@@]4(C)CC[C@@H]32)C1` [cholesterol ester of γ-linolenic acid], the IC50 (usually the midpoint of a concentration-inhibition curve) in data set [1] is over 100 µM. Further, in data set [2], the IC50 is over 100 µM and the “inhibitory activity in the whole-cell assay” value is “little activity”.
Turning to `O=C(O[C@@H]1Cc2c(O)cc(O)cc2O[C@@H]1c1cc(O)c(O)c(O)c1)c1cc(O)c(O)c(O)c1` [EGCG, epigallocatechin gallate], the “Inhibition (percent decrease in macule area vs androgen-treated macules)” value in data set [3] is 97%; in data set [7] (setting [12]), 40% and 64%; in data set [7] (setting [14]) it was 60%. Moreover, the Pigmented macule area in data set [3] (mean±SEM) is 0.50 ± 0.26 mm^2; in data set [7] (setting [13]), 8.25 ± 1.43 mm^2 and 6.25 ± 0.82 mm^2; in [7] (setting [14]), 5.62 ± 0.75 mm^2. In addition, the IC50 in [4] is 10 to 20 µM. Moreover, the “reversibility of inhibition after pelleting and resuspending microsomes” value in data set [5] (100 μM EGCG) is given as “could not be reversed”. In addition, the “mode of inhibition with respect to the substrate NADPH” value in data set [5] (setting [11]) was “competitive inhibitor”. The “mode of inhibition with respect to the substrate testosterone” value in data set [5] (setting [11]) is given as “non-competitive inhibitor”. Moreover, the “half-life in culture medium” value in data set [6] (culture medium used for whole-cell assays (pH 7.5), mean±SEM, N=3) was found to be 9.5 ± 0.5 min. The “difference in stability, phosphate buffer vs culture medium” value in [6] (pH 7.0 vs pH 7.5) came out at 8 fold. In data set [6] (pH 7.5), the “half-life in phosphate buffered saline” value was found to be 21.2 ± 2.0 min. Besides, the “half-life in phosphate buffer” value in [6] (phosphate buffer used for cell-free assays (pH 7.0), mean±SEM, N=3) is 74.7 ± 6.4 min.
As for `Oc1cccc(O)c1O` [Pyrogallol, 1,2,3-trihydroxybenzene], the “inhibitory activity in the cell-free assay” value in [1] is listed as “weak inhibitory activity”. Also, in [2], the “inhibitory activity in the whole-cell assay” value was “weak inhibitory activity”. The inhibition (commonly how much of the control response was suppressed) at 100 µM in data set [8] came to 15%.
Take `CCCCC/C=C\C/C=C\C/C=C\CCCCC(=O)OC` [Methyl ester of γ-linolenic acid]: the half-inhibitory concentration (IC50) in data set [1] and in data set [2] was over 100 µM each time. Moreover, the “inhibitory activity in the whole-cell assay” value in data set [2] is “little activity”.
For the compound `O=C(O)c1cc(O)c(O)c(O)c1` [gallic acid, 3,4,5-trihydroxybenzoic acid], the “inhibitory activity in the cell-free assay” value in data set [1] is “weak inhibitory activity”. For the same compound, the “inhibitory activity in the whole-cell assay” value in [2] is recorded as “weak inhibitory activity”.
For `O=C(/C=C/c1ccc(O)c(O)c1)OCCc1ccccc1` [Caffeic acid phenethyl ester], the inhibition at 100 µM amounted to 36% in data set [9], 99% in data set [10], 97% in data set [5] and 98% in data set [8]. The IC50 in [1] was 25 µM.
On to `CC/C=C\C/C=C\C/C=C\CCCCCCCC(=O)O` [Alpha-Linolenic Acid, Alpha-Linolenic Acid C18:3 CIS 9,12,15], for which the IC50 worked out at 9 µM in data set [9] (microsomes from rat 1A cells expressing human type 2 5α-reductase, read-out: Cell-free assay IC50, 5α-reductase Type 2); 29 µM in [10] (rat 1A cells expressing human type 1 5α-reductase); 8 µM in data set [5]; 23 µM in [8] (rat 1A cells expressing human type 2 5α-reductase). In addition, the inhibition at 100 µM was found to be 84% in [9], 82% in [10], 99% in data set [5] and 86% in [8].
Take `CCCCC/C=C\C/C=C\CCCCCCCC(=O)O` [Linoleic Acid, Linoleic Acid C18:2 CIS 9,12]: the inhibition at 100 µM in data set [9] was determined as 85%; in data set [10], 78%; in data set [5], 99%; in data set [8], 77%.
As to `O=C(O[C@@H]1Cc2c(O)cc(O)cc2O[C@@H]1c1ccc(O)c(O)c1)c1cc(O)c(O)c(O)c1` [ECG, epicatechin gallate], the values for the IC50 in data set [9] and in [4] were 69 µM and 10 to 20 µM, respectively. The “Inhibition (percent decrease in macule area vs androgen-treated macules)” value in data set [7] (setting [12]) was found to be 59%. Further, the Pigmented macule area in data set [7] (setting [13]) was found to be 5.75 ± 0.57 mm^2.
On to `Oc1ccccc1O` [Catechol, 1,2-dihydroxybenzene], for which the “inhibitory activity in the cell-free assay” value in data set [1] is “weak inhibitory activity”. Further, in data set [2], the “inhibitory activity in the whole-cell assay” value is listed as “weak inhibitory activity”.
Regarding `Oc1cc(O)c2c(c1)O[C@H](c1cc(O)c(O)c(O)c1)[C@H](O)C2` [EGC, epigallocatechin], in data set [4], the “activity against 5α-reductase, in vitro enzyme assay” value is reported as “not active”. Besides, the Pigmented macule area in data set [7] (setting [13]) is 10.75 ± 0.87 mm^2 and 5.50 ± 0.65 mm^2.
With `Oc1cc(O)c2c(c1)O[C@H](c1ccc(O)c(O)c1)[C@H](O)C2` [EC, epicatechin], the “activity against 5α-reductase, in vitro enzyme assay” value in [4] is recorded as “not active”. In addition, in [7] (setting [12]), the “Inhibition (percent decrease in macule area vs androgen-treated macules)” value is listed as 37%. For the same compound, in [7] (setting [13]), the Pigmented macule area worked out at 8.67 ± 1.08 mm^2.
